Test results taken from PubChem BioAssay AID179 (DTP/NCI, 2004).
Where “and” joins values, the source holds several entries; their conditions need not be identical. Equal values may be shown once. Calls of active or inactive are those of the source.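 How the source made its calls: active means compounds giving half or more protection of infected cells from virus-caused growth loss, again on retest; inactive means the rest.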

Test system: CEM cells HIV-1 protection, formazan growth assay
Test: NCI AIDS Antiviral Assay
Details: for IC50: measured here: growth of uninfected CEM cells
Outline: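 Human CEM cells, uninfected and HIV-1-infected, exposed to five drug concentrations; growth measured by soluble formazan assay and scored as percent protection from infection, with protecting compounds retested.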

Structure (SMILES) | outcome | EC50 [µM] | IC50
Cn1c(N)nc2c3ccc(=O)[nH]c3ccc21 | inactive | – | –
COc1ccc2[nH]c3c(c2c1)[C@H](C)C[C@@H]1C(=O)N(c2ccccc2)C(=O)[C@H]31 | inactive | – | –
CC1(C)COC(c2cccc3c2C2C=CC3O2)=N1 (configuration not stated) | – | > 200 | > 200 µM
Cc1ccc(S(=O)(=O)N2CCSCCSCCSCCSCC2)cc1 | – | > 12 | > 12 µM
c1ccc2c(-c3csc(-c4c[nH]c5ccccc45)n3)c[nH]c2c1 | – | > 200 | 56.2 µM
CCCCNC(=O)n1ncc2cc([N+](=O)[O-])c([N+](=O)[O-])cc21 | – | > 200 | 25.7 µM
COc1ccc(/C=C/C(=O)NCC(NC(=O)/C=C/c2ccc(OC)c(OC)c2)C(=O)O)cc1OC (configuration not stated) | – | > 200 | > 200 µM
CC1(C)CC(C)(C)CC(O)(C2(O)CC(C)(C)CC(C)(C)C2)C1 | – | > 8.71 | > 8.71 µM
CCOC(=O)/C(=C/c1ccc(OC)cc1)N(CC)CC | – | > 468 | 263 µM
O=P1(c2ccccc2)C=C(c2ccccc2)NC(c2ccccc2)=C1 | inactive | – | –
CC(C)(NC(=O)OCc1ccccc1)C(=O)OC(=O)C(C)(C)NC(=O)OCc1ccccc1 | – | > 200 | > 200 µM
CN1CCCC(C(=O)O)(c2ccccc2)CC1 (configuration not stated) | inactive | – | –
Cc1ncc([N+](=O)[O-])n1CCNC(=O)CCn1ccnc1[N+](=O)[O-] | – | > 200 | > 200 µM
O=[N+]([O-])c1ccc([As](=O)(O)O)c2ccccc12 | – | > 200 | > 200 µM
CN1C(=O)c2ccccc2OC12C=Cc1c(ccc3ccccc13)O2 (configuration not stated) | – | > 195 | 14.1 µM
COc1ccccc1N(CN1C(=O)CCC1C(=O)O)C(C)=O (configuration not stated) | inactive | – | –
Nc1c(N=Nc2ccc([N+](=O)[O-])cc2)c(S(=O)(=O)O)cc2cc(S(=O)(=O)O)c(N=Nc3ccc(-c4ccc(N=Nc5ccc(O)cc5)cc4)cc3)c(O)c12 | – | > 100 | 15.1 µM
COc1ccc2c3c1OC1C4(OC)C=CC5(c6c(OC)ccc(O)c64)C(C2)N(C)CCC315 (configuration not stated) | – | > 100 | 53.7 µM
CC1(Cl)C(=O)NC(=O)N(C2CC(N=[N+]=[N-])C(CO)O2)C1N=[N+]=[N-] (configuration not stated) | – | 3.89 | 282 µM
CC(=O)NC1C(OCC(=O)NCCNc2ccc([N+](=O)[O-])c3[nH]c4ccccc4c(=O)c23)C(O)C(CO)OC1(C)OCc1ccccc1 (configuration not stated) | – | > 200 | > 200 µM
COc1ccc(-[n+]2nc(S(=O)(=O)O)c(/C=C/c3ccc(N(C)C)cc3)cc2C#N)cc1 | – | > 151 | > 151 µM
CC(=O)OCC1OC(Nn2c(=O)[nH]c3ccccc3c2=O)C(OC(C)=O)C(OC(C)=O)C1OC(C)=O (configuration not stated) | – | > 158 | 117 µM

Structure (SMILES) | outcome | EC50 [µM] | IC50
CC(=O)NS(=O)(=O)c1ccc(NC(=O)c2ccccc2SC(=O)CCCC[n+]2ccccc2)cc1 | – | 1.78 | > 200 µM
CC(=O)Nc1n[n+]([O-])c2cc(C)ccc2[n+]1[O-] | – | > 200 | 0.955 µM
CCOC(=O)C1N(S(=O)(=O)c2ccc(C)cc2)CCC12c1ccccc1N(C(C)=O)C2C(/C=C/C(=O)OC)=C/C(=O)OC (configuration not stated) | inactive | – | –
C=C(/C=N/N(C)C)CC1c2c(O)ccc3cccc(c23)N1S(=O)(=O)c1ccc(C)cc1 (configuration not stated) | – | > 10.7 | > 10.7 µM
CSc1c(C(=O)Nc2ccc(C)cc2)c(N)nn1-c1ccccc1 | – | > 200 | > 200 µM
Brc1ccc(C2=CSC3=NCCN23)cc1 | – | > 200 | 23.4 µM and 107 µM
C[C@H]1C[C@H]2[C@@H]3CCC4=CC(=O)C=C[C@]4(C)[C@@]3(F)[C@@H](O)C[C@]2(C)[C@H]1O | inactive | – | –
O=C(OCCc1ccccc1)c1cc2cc(O)c(O)cc2cn1 | – | > 8.32 | > 8.32 µM
O=c1[nH]c2ccccc2c(=O)c2ccccc12 | – | > 32.4 | > 32.4 µM
Cn1nc(NC(=O)c2cc(NC(=O)Nc3cc(C(=O)Nc4cc(C(=O)Nc5ccc6cc(S(=O)(=O)O)cc(S(=O)(=O)O)c6c5)n(C)n4)n(C)n3)nn2C)cc1C(=O)Nc1ccc2cc(S(=O)(=O)O)cc(S(=O)(=O)O)c2c1 | – | 5.13 | > 100 µM
CC1=CCS(=O)(=O)C1C(O)C1=C(C)CCCC1(C)C (configuration not stated) | – | > 200 | 40.7 µM
COC(=O)C(=C/c1ccc(OC)cc1)/C(C(=O)O)=C(/C)c1ccccc1 | – | > 708 | –
O=C(O)c1cc(=O)c2cccc(O)c2[nH]1 | – | > 200 | > 200 µM
C=C(C)[C@@H]1CCC2=C[C@@H](OC2=O)[C@@H](C(=C)C)C2=CC(C(=O)O)=C(C1)O2 | – | > 200 | 91.2 µM
c1ccc(-c2cc(-c3cc(-c4ccccc4)n(-c4ccccc4)n3)nn2-c2ccccc2)cc1 | – | > 100 | > 100 µM
ClB1NB(Cl)NB(Cl)N1 | – | > 138 | > 138 µM
O=C(Nc1ccc(Cl)cc1)/C(Cc1cccc[n+]1[O-])=N\Nc1ccc([N+](=O)[O-])cc1[N+](=O)[O-] | – | > 107 | > 107 µM
Cc1cc2c(cc1Cl)SC(C(=O)c1ccc(Cl)c(Cl)c1)=NS2(=O)=O | inactive | – | –
CC(C)(C)c1cc(CCC(=O)Nc2ccc(Cl)cc2Cl)nc(N)n1 | – | > 135 | > 135 µM
CC1=CC(/C=C(\C)CCCc2ccoc2)C2(OC(=O)C(C)=C2O)[C@H]2C1CC[C@@H]2C (some centres not stated) | inactive | – | –
CO[C@@H]1C=C[C@@]23c4cc5c(cc4CN(C[C@@H]2O)[C@H]3C1)OCO5 | – | > 603 | 1.1 µM
CCCCCCCCCCCCCNC1=C(O)c2ccccc2C(=O)C1=O | inactive | – | –

Structure (SMILES) | outcome | EC50 [µM] | IC50
C[Si](C)(C)c1ccc(-c2sc(-c3ccc([Si](C)(C)C)s3)c3c2C[Si]2(C3)Cc3c(-c4ccc([Si](C)(C)C)s4)sc(-c4ccc([Si](C)(C)C)s4)c3C2)s1 | – | > 5.75 | > 5.75 µM
Nc1nc2c(c(-c3ccccc3Cl)n1)COC/C2=C\c1ccccc1Cl | inactive | – | –
Cc1ccc2c(c1)C(=O)CC=C(C(=O)O)N2 | – | > 200 | > 200 µM
CCOP(=O)(OCC)/C(C#N)=C/c1nc[nH]c1C | – | > 200 | > 200 µM
O=c1c2ccccc2c(=O)c2cc3c(=O)n(-c4ccccc4)c(=O)c3cc12 | inactive | – | –
O=c1[nH]c2c(cnn2-c2ccccc2)c(=O)n1O | – | > 200 | > 200 µM
CCOC(OCC)/C(C)=N/[N+](C)(C)C | – | > 200 | > 200 µM
Nc1ccccc1C(=O)NNC(=O)c1ccccc1N | – | > 200 | > 200 µM
CC(=O)NCCC1CNc2ccccc21 (configuration not stated) | – | > 200 | > 200 µM
O=[N+]([O-])c1cccc(C2CC(c3ccccc3)=Nc3ccccc3S2)c1 (configuration not stated) | – | > 35.5 | 2.34 µM
CC12CCC(=O)N1c1cc(Cl)ccc1N2 (configuration not stated) | – | > 115 | > 115 µM
COc1ccc(C(=O)C(c2ccc(OC)cc2)C2(O)C(=O)Nc3c(Cl)cc(Cl)cc32)cc1 (configuration not stated) | – | > 39.8 | > 39.8 µM
Nc1ncnc2nc(-c3ccc(C[P+](c4ccccc4)(c4ccccc4)c4ccccc4)cc3)[nH]c12 | – | > 200 | > 200 µM
CCN(CC)CCC(=O)c1ccccc1 | – | > 871 | > 200 µM and 26.9 µM
Cc1ccc(C(=O)C2C=C(c3ccc(C)cc3)SC3C=CCC32)cc1 (configuration not stated) | – | > 200 | 14.8 µM
COC(=O)[C@@H]1[C@H]2[C@H](OC(=O)c3ccccc3)CCN2C(=O)[C@H]1O | – | > 200 | 75.9 µM
c1cc[c]([Sn]([S]c2cccc3cccnc23)([c]2ccccc2)[c]2ccccc2)cc1 | inactive | – | –
c1ccc([P+](c2ccccc2)(c2ccccc2)c2ccc([P+](c3ccccc3)(c3ccccc3)c3ccccc3)cc2)cc1 | – | > 74.1 | 30.9 µM
COc1ccc(C2OC(N)=C(C#N)C3=C2C(C)CCC3)cc1OC (configuration not stated) | – | 501 | 631 µM
COc1cccc(/C=N/[N-]C(N)=O)c1[O-].[OH3+].[Pd+2] | – | > 21.9 | > 21.9 µM
CCOC(=O)/C=C(\N=P(c1ccccc1)(c1ccccc1)c1ccccc1)C(F)(F)C(F)(F)C(F)(F)C(F)(F)C(F)(F)F | – | > 200 | > 200 µM
O=C1OC([C@H](O)c2cccnc2)c2ccccc21 (some centres not stated) | – | > 200 | > 200 µM

Structure (SMILES) | outcome | EC50 [µM] | IC50
O=c1cc(NNCc2ccccc2)[nH]c(=O)[nH]1 | – | > 200 | 57.5 µM
CC(=O)Oc1cc(/C=C(\C#N)C(=O)NCCCCNC(=O)/C(C#N)=C/c2cc(OC(C)=O)c(OC(C)=O)c(OC(C)=O)c2)cc(OC(C)=O)c1OC(C)=O | – | > 200 | 21.9 µM
CN(C)C=NCCN1CCOCC1 | – | > 200 | > 200 µM
O=C1C2=Cc3ccccc3CCN2c2ccc([N+](=O)[O-])cc21 | – | > 200 | 166 µM
CN1CCN(CCCCN2c3ccccc3Sc3ccc(N=[N+]=[N-])cc32)CC1 | – | > 200 | 5.25 µM
CC(=O)N1OC2(C)c3ccccc3C1(C)c1ccccc12 | – | > 25.7 | 23.4 µM
COc1cc2c(cn1)[nH]c1ccccc12 | inactive | – | –
O=C(N/N=C/c1ccc(O)c(S(=O)(=O)O)c1)C(=O)N/N=C/c1ccc(O)c(S(=O)(=O)O)c1 | – | > 100 | > 100 µM
CN(C)CCCN=C(N)N | – | > 200 | > 200 µM
O=C(O)c1[nH]c2c(=O)[nH]c(=O)[nH]c2c1Br | inactive | – | –
CO[C@@]12CC(=O)/C(=C(O)\C=C\c3ccccc3)C(=O)[C@]1(OC)Cc1ccccc1O2 | – | > 17.8 | 15.5 µM
COC(=O)C1(NC(=O)C(CC(=O)OCc2ccccc2)NC(=O)OCc2ccccc2)CCCCCCC1 (configuration not stated) | – | > 200 | 11.7 µM
CC1C2(C)OC(=N)C(C#N)(C(C)O2)C1(C#N)C#N (configuration not stated) | – | > 200 | 9.77 µM
CC(=O)C(=C(I)I)c1ccccc1 | inactive | – | –
COC(=O)/C=C(\C(=O)OC)C1C(=O)Oc2c(C)c(=O)c3ccccc3n21 (configuration not stated) | – | > 200 | 60.3 µM
COC(=O)c1cc(C#N)[nH]c1-c1ccc(C)s1 | – | > 200 | 35.5 µM
Cc1ccc(C2SCc3nc4ccccc4n32)cc1 (configuration not stated) | – | > 200 | 1.02 µM
C=C(CCCCCOCOCCOC)[Si](C)(C)C | – | > 26.3 | > 26.3 µM
O=C(O)[C@@H]1C2C3CC4C2C4C3[C@@H]1C(=O)O | inactive | – | –
